“And” between values parts separate entries of the source, which are not always exact repeats. Equal entries are not always repeated. Where two headings read alike, the source gives them in different places.
Tests used:
cathepsin D = assay: Western blotting of cathepsin D in LCC9 cells; assay type: cell-based, human; conditions: LCC9, 24-hr exposure
Method: MCF-7 cells in DMEM plus 5% CSS were subjected to the indicated treatment(s) for 24-hr and then harvested for Western blotting to detect cathepsin D or actin (control for loading and transfer). B., D. LCC9 cells were treated with vehicle only (DMSO) or the indicated compound for 24-hr and then harvested for Western blotting for cathepsin D and actin. The data shown in each panel are representative of three independent experiments.
After the indicated cell treatment(s), the cells were harvested, and whole-cell lysates were prepared using RIPA buffer (Santa Cruz). Equal aliquots of whole-cell protein (either 100 μg unprecipitated whole-cell lysate or one half of the precipitated protein from 500-μg whole-cell lysate) were electrophoresed on 4-12% SDS-polyacrylamide gradient gels, transferred to nitrocellulose membranes (Millipore, Bedford, MA), and blotted using primary antibodies against BRCA1 (C-20, rabbit polyclonal, 1:200 dilution; Santa Cruz), cathepsin D (R-20, goat polyclonal, 1:300; Santa Cruz), ER (F10, mouse monoclonal, 1:500; Santa Cruz), or actin (goat polyclonal, sc-1615, 1:400; Santa Cruz). […]

[1] = molecular target: T1, estrogen receptor-alpha (ER) (Homo sapiens, UniProt P03372); assay: ER activity, ERE-TK-Luc reporter, in MCF-7 cells; assay type: cell-based; design: MCF-7 cells in 24-well dishes were transfected overnight with the ERE-TK-Luc reporter plasmid; endogenous in cells; host or cells: MCF-7; conditions: for IC50: read-out: IC50 for inhibition of E2-stimulated ER activity
T1 sequence (P03372 1-595): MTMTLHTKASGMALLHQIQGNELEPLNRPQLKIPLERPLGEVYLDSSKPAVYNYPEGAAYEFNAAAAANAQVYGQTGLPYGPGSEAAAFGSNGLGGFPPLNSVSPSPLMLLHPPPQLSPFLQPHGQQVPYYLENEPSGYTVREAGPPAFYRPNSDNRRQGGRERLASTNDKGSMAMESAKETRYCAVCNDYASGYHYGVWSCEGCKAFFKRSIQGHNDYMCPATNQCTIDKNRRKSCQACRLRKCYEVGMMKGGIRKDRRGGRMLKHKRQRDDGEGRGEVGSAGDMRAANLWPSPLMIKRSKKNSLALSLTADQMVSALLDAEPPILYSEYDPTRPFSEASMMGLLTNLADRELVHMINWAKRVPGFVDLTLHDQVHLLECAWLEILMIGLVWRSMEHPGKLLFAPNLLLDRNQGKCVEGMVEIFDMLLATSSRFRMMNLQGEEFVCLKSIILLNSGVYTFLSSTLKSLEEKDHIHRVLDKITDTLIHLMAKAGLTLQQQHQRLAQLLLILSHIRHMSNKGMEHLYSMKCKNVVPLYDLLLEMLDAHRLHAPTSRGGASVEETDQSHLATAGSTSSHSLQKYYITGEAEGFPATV
Method: For MCF-7, luciferase activity is expressed as a fold-change relative to the no E2 control. For LCC9, luciferase activity is expressed relative to the control without the reporter present. Values plotted are means ± SEMs of four replicate wells. The data shown in each panel are representative of three independent experiments.
The cells were then treated ± 17β-estradiol (E2, 10 nM) and with the indicated compound (@ 1 μM or 20 μM) or vehicle only (DMSO) for 24 hr and assayed for luciferase activity. Luciferase activity is expressed as a fold-change relative to the no E2 control. The data shown are representative of three independent experiments.
Subconfluent cells in 24-well dishes were transfected overnight with 0.25 μg of each indicated vector plus the ERE-TK-Luc reporter in serum-free DMEM containing Lipofectamine2000 (Life Technologies, Washington, DC). Total transfected DNA was kept constant by addition of control vector. The cells were washed, incubated in phenol red-free DMEM containing 5% charcoal-stripped serum (obtained from the Tissue Culture Shared Resource) (0.2 ml/well) ± E2 (10 nM) ± the indicated compound for 24-hr, and harvested for luciferase assays. For each assay condition was tested in quadrupicate. To monitor the transfection efficiency, cultures were co-transfected with plasmid pRSV-β-gal (Promega, Madison, WI) to visualize transfected cells by X-gal staining.

ER/ERE complex = molecular target: T2, ER/ERE complex (Homo sapiens, UniProt P03372); assay: EMSA and supershift assays of ER binding to consensus ERE, MCF-7 nuclear extracts; assay type: biochemical; conditions: for ER/ERE complex in EMSA, compound added directly to nuclear extracts: 1-5 μM added to MCF-7 nuclear extracts, compared with pre-incubation of cells; for interaction of ER with a model ERE oligonucleotide (EMSA, supershift): MCF-7 cells
T2 construct: MCF-7 cells in 24-well dishes were transfected overnight with the ERE-TK-Luc reporter plasmid; endogenous in cells; host or cells: MCF-7
T2 sequence (P03372 1-595): T1 sequence (P03372 1-595)
Method: After the 24-hr incubation, the cells were harvested, nuclear extracts were prepared, and the extracts were reacted with labeled “hot” ERE and an excess of unlabeled “cold” ERE, as indicated, prior to electrophoresis. In panel B, the experiment was performed similarly except that an anti-ER antibody was added to generate a “supershift”. C., D. Experiments were performed similarly to those above, except that different concentrations of compound (as indicated) were added directly to the reaction mixture containing nuclear extract and were not pre-incubated with whole cells. […] E., F. These experiments were performed similarly to those in C and D, except that anti-ER antibody was added to the reaction mixture to reveal “supershifted” bands. […] The data shown in each panel are representative of three independent experiments.
Double-stranded oligonucleotides containing a consensus ERE were obtained from Santa Cruz Biotechnology (sc-2858). Sequences of the oligonucleotides were: sense 5′-[…]-3′ and antisense: 3′-[…]-5′. Oligonucleotides were 3′-end-labeled using a Biotin Kit (Thermo Scientific, Rockford, IL). DNA binding reactions were carried out using nuclear extracts of MCF-7 cells that were treated ± E2 (10 nM) and ± the indicated compound for 24-hr. Treated cells were harvested and nuclear extracts were prepared using the NE-PER Nuclear and Cytoplasmic Extraction Reagents (Thermo Scientific). Aliquots of nuclear extract protein (2 μg) were incubated with gel-shift binding buffer (LightShift Chemiluminescent EMSA Kit, Thermo Scientific) for 30 min at 25°C. After incubation, 40 fmol of biotin-labeled ERE-containing oligonucleotides were added, and the mixture was re-incubated for 30 min at 25°C. Reaction products were loaded electrophoresed on a 6% DNA retardation gel (Invitrogen) and transferred onto a nylon membrane. Biotin-labeled DNA was detected using the Chemiluminescent Nucleic Acid Detection Module (Thermo Scientific). To test the specificity of binding, a 40-fold excess of unlabeled (“cold”) oligonucleotide was added to one of the reactions along with the biotin-labeled (“hot”) oligonucleotide. Note: In some experiments, the compound was added to the reaction mixture after the nuclear extract was prepared. Supershift assays were performed as above, except that before addition of the hot ERE oligonucleotide, nuclear extracts were incubated with 2-μg of anti-ER IgG (rabbit polyclonal, HC-20, Santa Cruz) for 30 min at 25°C.

| inhibition at 1 µM ([1]; MCF7, MCF-7, E2 10 nM, compound 1 μM, 24 hr, read-out: inhibition of E2-stimulated ER activity at 1 μM) | Compound | constitutive cathepsin D levels in LCC9 (cathepsin D) | IC50 ([1]; MCF-7, E2 10 nM, 24 hr) | ER/ERE complex in EMSA, compound added directly to nuclear extracts (ER/ERE complex) | interaction of ER with a model ERE oligonucleotide (EMSA, supershift) (ER/ERE complex) | ER/ERE complex in EMSA, cells pre-incubated with compound (ER/ERE complex; MCF-7 pre-incubated with E2 10 nM and compound 1 or 20 μM for 24 hr) | inhibition at 1 µM ([1]; MCF7, read-out: inhibition of E2-stimulated ER activity at 1 μM) |
| --- | --- | --- | --- | --- | --- | --- | --- |
| ≥ 50% | O=C(c1cc(Br)ccc1O)c1cc(Br)ccc1O [4631-P/1] | decreased | ≤ 1000 nM | greater effect | disrupt the interaction of ER with a model ERE oligonucleotide | dose-dependent reduction of the ER/ERE complex | – |
| – | O=C(CC(c1ccccc1)N1CCCCC1)c1ccccc1 (centres unmarked) [35446-L/1, 1,3-diphenyl-3-(piperidin-1-yl)propan-1-one] | decreased | ≤ 1000 nM and 800 nM | greater effect | disrupt the interaction of ER with a model ERE oligonucleotide | – | ≥ 50% |

Source: paper PMC4747340, “A new class of small molecule estrogen receptor-alpha antagonists that overcome anti-estrogen resistance” (Oncotarget, 2015)
